Each structure is given as a SMILES string. Like-named read-outs stand apart in the source and are kept apart here.

Experimental findings from paper PMC8549260, “Crude extract and isolated bioactive compounds from Notholirion thomsonianum (Royale) Stapf as multitargets antidiabetic agents: in-vitro and molecular docking approaches” (BMC Complementary Medicine and Therapies, 2021) are described below.

Test [1] is described as follows: DPPH free radicals scavenging assay. The note with it: for DPPH Assay % Scavenging (mean ± SEM) / DPPH Percent Inhibition (mean ± SEM): n = 3. How it is done: Plant samples solutions were prepared ranging from 125 to 1000 μg/ mL and were added to 0.004% methanolic solution of DPPH. Subsequent to 30 min incubation, absorbances were measured at 517 nm.
In free radicals’ assays including DPPH, ABTS and H2O2, the IC50s were calculated using same method.
(The DPPH test is a chemical assay of radical scavenging.)

The nature of test [2]: H2O2 free radicals scavenging assay. As to conditions: n = 3. How it is done:
This method was used to determine the antioxidant potentials of crude extracts from N. thomsonianum. A solution of H2O2 (2 mM) was prepared in buffer solution of phosphate (50 mM, pH 7.40). In a test tube, 0.10 mL of crude extract was measured, and the volume was diluted to 0.40 mL by adding the phosphate buffer. Then 0.60 mL solution of H2O2 was added to it and was mixed properly. The absorbance of the crude sample and standard were recorded on 230 nm. The same procedure was repeated for all the crude samples.

Test [3] in a line: ABTS free radicals scavenging assay. As to conditions: for ABTS Assay % Scavenging (mean ± SEM): n = 3. How it is done:
Plant crude samples were also evaluated against ABTS free radicals using standard protocol. In this protocols, 7 mM solution of ABTS and 2.45 mM of potassium per sulfate were mixed and kept in dark at laboratory temperature for around 16 h till the color become dark. Solution of 0.01 M of phosphate buffer having pH 7.40 was mixed with it and absorbance was adjusted at 0.70 at 734 nm. Afterwards, solution of the plant extracts (300 μl) was added to ABTS solution (3 mL) and absorbance was recorded at 734 nm. Mixed the solution for 1 min and reduction in absorbance was recorded. The mixing and reduction were repeated for 6 min. The experiments were performed three times. The percent inhibitions and subsequent IC50 values of samples and standard ascorbic acid were calculated as per the standard procedure.

Another test has as its target Yeast α-Glucosidase (Saccharomyces cerevisiae, UniProt P53341). Description: biochemical. As to conditions: for IC50: α-Glucosidase IC50, Table 3, isolated compounds series. How it is done: In 0.10 M of phosphate buffer having pH of 6.90, the α-glucosidase enzyme solution was prepared (0.50 U/ mL). […] The same solution without the enzyme was used as a blank. The absorbances were recorded at 405 nm. All the experiments were repeated in triplicate. The percent inhibitions and subsequent IC50 (in μg/mL and also in μM) were calculated accordingly. […]

The next test addresses T1, α-amylase (Homo sapiens, UniProt P04746).
T1 sequence (P04746 16-511): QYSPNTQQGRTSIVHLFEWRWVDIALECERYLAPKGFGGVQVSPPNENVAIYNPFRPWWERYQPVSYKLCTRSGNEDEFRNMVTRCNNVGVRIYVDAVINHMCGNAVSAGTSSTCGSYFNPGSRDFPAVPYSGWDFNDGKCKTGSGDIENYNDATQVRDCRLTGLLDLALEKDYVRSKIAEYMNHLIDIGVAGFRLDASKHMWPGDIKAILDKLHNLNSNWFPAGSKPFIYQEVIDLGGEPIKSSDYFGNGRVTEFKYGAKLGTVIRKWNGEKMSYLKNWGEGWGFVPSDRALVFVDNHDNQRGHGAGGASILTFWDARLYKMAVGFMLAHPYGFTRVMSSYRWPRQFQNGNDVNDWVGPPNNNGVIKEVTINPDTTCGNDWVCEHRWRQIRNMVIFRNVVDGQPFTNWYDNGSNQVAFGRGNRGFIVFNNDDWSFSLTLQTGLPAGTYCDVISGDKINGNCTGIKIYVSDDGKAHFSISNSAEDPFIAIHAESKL
Description: In-vitro α-amylase inhibition. The format is biochemical. The note with it: for IC50: Table 3, isolated compounds series. As to the method:
The amylase solution was prepared in phosphate buffer followed by addition of different concentrations of plant extracts and isolated compounds. The solutions of test samples in enzyme solution were allowed to react. The solutions were incubated for a specific temperature and were added starch solution. Afterwards, a solution of dinitrosalicylic acid was added to both of the groups, i.e. sample and control solution groups. The solutions were then allowed to heat up in boiling water for a few min. […] The experiments were performed in triplicates and percent inhibitions were calculated as per the reported formula. […]

In the next test the target is T2, PTP1B (Homo sapiens, UniProt P18031).
T2 sequence (P18031 1-435): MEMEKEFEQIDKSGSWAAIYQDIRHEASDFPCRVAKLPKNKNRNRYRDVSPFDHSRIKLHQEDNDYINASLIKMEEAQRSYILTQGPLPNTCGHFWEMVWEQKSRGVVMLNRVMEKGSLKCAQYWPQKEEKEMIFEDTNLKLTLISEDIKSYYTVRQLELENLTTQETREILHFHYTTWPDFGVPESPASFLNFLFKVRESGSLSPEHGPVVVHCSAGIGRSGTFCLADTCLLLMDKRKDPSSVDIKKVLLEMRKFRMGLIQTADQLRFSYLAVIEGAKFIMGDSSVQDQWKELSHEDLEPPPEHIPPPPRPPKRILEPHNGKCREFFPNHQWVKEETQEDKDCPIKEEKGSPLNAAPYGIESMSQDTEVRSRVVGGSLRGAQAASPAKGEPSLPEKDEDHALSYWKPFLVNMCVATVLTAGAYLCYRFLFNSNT
Description: Protein tyrosine phosphatase 1B inhibition. The format is biochemical. As to the method:
The solutions were then incubated for 40 min at 27 °C and absorbances were recorded at 405 nm using microplate reader. The experiments were repeated three times and percent inhibitions followed by IC50 values were recorded accordingly.

Setting [4] is: read-out: Alpha glucosidase Percent Inhibition (mean ± SEM).
Where [5] appears, read: read-out: α-Glucosidase Percent Inhibition (mean ± SEM).
The mark [6] stands for this setting: read-out: Alpha amylase Percent Inhibition (mean ± SEM).
Setting [7] is: read-out: α-Amylase Percent Inhibition (mean ± SEM).
Where [8] appears, read: Table 3, 125 μg/mL, n = 3, read-out: α-Amylase Percent Inhibition (mean ± SEM) (converted).
The mark [9] stands for this setting: Table 3, 250 μg/mL, n = 3, read-out: α-Amylase Percent Inhibition (mean ± SEM) (converted).
Where [10] appears, read: Table 3, 500 μg/mL, n = 3, read-out: α-Amylase Percent Inhibition (mean ± SEM).
Where [11] appears, read: 125 μg/mL, n = 3, read-out: PTP1B Percent Inhibition (mean ± SEM) (converted).
The mark [12] stands for this setting: 250 μg/mL, n = 3, read-out: PTP1B Percent Inhibition (mean ± SEM) (converted).
Setting [13] is: 500 μg/mL, n = 3, read-out: PTP1B Percent Inhibition (mean ± SEM).
The mark [14] stands for this setting: read-out: PTP1B Percent Inhibition (mean ± SEM).

Yeast α-Glucosidase, sequence (P53341 whole entry): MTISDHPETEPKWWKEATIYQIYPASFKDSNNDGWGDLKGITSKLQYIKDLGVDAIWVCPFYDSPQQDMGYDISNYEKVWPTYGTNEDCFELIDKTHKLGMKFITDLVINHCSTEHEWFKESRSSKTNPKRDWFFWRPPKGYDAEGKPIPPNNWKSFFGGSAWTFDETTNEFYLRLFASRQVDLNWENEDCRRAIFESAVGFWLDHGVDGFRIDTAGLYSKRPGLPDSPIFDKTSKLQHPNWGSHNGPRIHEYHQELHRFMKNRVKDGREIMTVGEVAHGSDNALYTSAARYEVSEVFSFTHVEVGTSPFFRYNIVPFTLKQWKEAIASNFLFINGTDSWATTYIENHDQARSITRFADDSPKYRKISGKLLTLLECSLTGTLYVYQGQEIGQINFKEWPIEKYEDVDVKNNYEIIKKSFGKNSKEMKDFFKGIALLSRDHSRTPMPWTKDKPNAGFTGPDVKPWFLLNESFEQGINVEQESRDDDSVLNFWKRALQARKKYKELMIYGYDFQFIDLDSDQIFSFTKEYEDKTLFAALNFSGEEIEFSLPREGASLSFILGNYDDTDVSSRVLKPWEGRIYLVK

Regarding `O=C1O[C@H]([C@@H](O)CO)C(O)=C1O` [AA, Ascorbic acid], the “DPPH Assay % Scavenging (mean ± SEM)” value amounted to 76.54 ± 0.54% in test [1] (Table 2, 125 μg/mL); 81.33 ± 0.88% in test [1] (Table 2, 250 μg/mL); 87.84 ± 0.26% in test [1] (Table 2, 500 μg/mL); 92.55 ± 0.35% in test [1] (Table 2, 1000 μg/mL). The “DPPH Assay IC50” value in test [1] (Table 2, crude extracts series) is less than 0.1 µg/mL. Further, the “DPPH Percent Inhibition (mean ± SEM)” value in test [1] (Table 4, 125 μg/mL) is recorded as 85.20 ± 0.49%; in test [1] (Table 4, 250 μg/mL), 88.47 ± 0.71%; in test [1] (Table 4, 500 μg/mL), 91.75 ± 0.42%. Moreover, the “H2O2 Assay % Scavenging (mean ± SEM)” value is 68.00 ± 0.57% in test [2] (125 μg/mL), 71.50 ± 0.60% in test [2] (250 μg/mL), 74.66 ± 0.49% in test [2] (500 μg/mL) and 83.33 ± 0.88% in test [2] (1000 μg/mL). In addition, the “ABTS Assay IC50” value in test [3] was less than 0.1 µg/mL. Besides, the “ABTS Assay % Scavenging (mean ± SEM)” value came out at 78.46 ± 0.58% in test [3] (125 μg/mL), 80.43 ± 0.55% in test [3] (250 μg/mL), 86.53 ± 0.60% in test [3] (500 μg/mL) and 87.60 ± 0.40% in test [3] (1000 μg/mL).
Take `C[C@H]1O[C@H](O[C@H]2[C@H](O)[C@@H](O)[C@@H](O[C@H]3[C@H](O)[C@@H](O)C(O)O[C@@H]3CO)O[C@@H]2CO)[C@H](O)[C@@H](O)[C@@H]1N[C@H]1C=C(CO)[C@@H](O)[C@H](O)[C@H]1O` (some centres unmarked) [Acarbose, reference compound]: at Yeast α-Glucosidase (setting [4]), the inhibition (in general, the drop in the measured response relative to a control, in per cent) at 125 µg/mL was 61.5%; the inhibition at 250 µg/mL is 67.5%; the inhibition at 500 µg/mL is 73.9%; the inhibition at 1000 µg/mL stood at 76.87 ± 0.06%. At Yeast α-Glucosidase (setting [5]), the inhibition at 125 µg/mL was 77.6%, the inhibition at 250 µg/mL is 82.4% and the inhibition at 500 µg/mL was 87.08 ± 0.47%. In addition, at α-amylase (setting [6]), the inhibition at 125 µg/mL is 64.5%, the inhibition at 250 µg/mL was 69%, the inhibition at 500 µg/mL is 71.7% and the inhibition at 1000 µg/mL turned out to be 78.63 ± 0.54%. Also, at α-amylase (setting [7]), the inhibition at 125 µg/mL is 83.9%, the inhibition at 250 µg/mL is 89.5% and the inhibition at 500 µg/mL was 95.23 ± 0.22%.
For the molecule `CC(C)=CC(=O)CC(C)c1ccc(C)cc1` (centres unmarked) [Nt01], the “DPPH Percent Inhibition (mean ± SEM)” value worked out at 79.62 ± 0.03% in test [1] (Table 4, 125 μg/mL); 84.36 ± 1.15% in test [1] (Table 4, 250 μg/mL); 88.35 ± 0.89% in test [1] (Table 4, 500 μg/mL). The results for the inhibition at 125 µg/mL at Yeast α-Glucosidase (setting [5]), at α-amylase (setting [8]) and on PTP1B (setting [11]) were 44.4%, 67.9% and 83.4%, respectively. Also, the inhibition at 250 µg/mL at Yeast α-Glucosidase (setting [5]) is 51.9%; on α-amylase (setting [9]), 72.1%; on PTP1B (setting [12]), 88.7%. In addition, the inhibition at 500 µg/mL on Yeast α-Glucosidase (setting [5]) came out at 55.6 ± 1.06%; on α-amylase (setting [10]) it was 77.8 ± 2.24%; at PTP1B (setting [13]), 90.09 ± 0.32%. For the same molecule, the IC50 (as a rule, the concentration that gives 50% inhibition) against α-amylase is less than 144 µM; against α-amylase (based on molecular weight), less than 145 µM; on PTP1B, less than 144 µM; against PTP1B (based on molecular weight), less than 145 µM.
Take `CCCC/C=C/C=O` [Nt02]: the “DPPH Percent Inhibition (mean ± SEM)” value is on record as 74.78 ± 0.44% in test [1] (Table 4, 125 μg/mL); 79.32 ± 0.40% in test [1] (Table 4, 250 μg/mL); 86.60 ± 0.00% in test [1] (Table 4, 500 μg/mL). For the same molecule, the figures for the inhibition at 125 µg/mL at Yeast α-Glucosidase (setting [5]), on α-amylase (setting [7]) and on PTP1B (setting [14]) were 66.9%, 78.4% and 85.8%, respectively. For the same molecule, the figures for the inhibition at 250 µg/mL on Yeast α-Glucosidase (setting [5]), on α-amylase (setting [7]) and at PTP1B (setting [14]) were 71.1%, 85.3% and 90.9%, respectively. The inhibition at 500 µg/mL was determined as 76.8 ± 2.24% at Yeast α-Glucosidase (setting [5]), 91.36 ± 0.49% on α-amylase (setting [7]) and 93.03 ± 0.48% on PTP1B (setting [14]). In addition, the half-inhibitory concentration (IC50) at Yeast α-Glucosidase, on Yeast α-Glucosidase (based on molecular weight), against α-amylase, on α-amylase (based on molecular weight), at PTP1B and at PTP1B (based on molecular weight) was less than 279 µM each time.
In the case of `Cc1c(C)c2c(c(C)c1O)CCC(C)(CCCC(C)CCCC(C)CCCC(C)C)O2` (centres unmarked) [Nt03], the “DPPH Percent Inhibition (mean ± SEM)” value is recorded as 84.44 ± 0.15% in test [1] (Table 4, 125 μg/mL); 87.14 ± 0.49% in test [1] (Table 4, 250 μg/mL); 90.69 ± 0.14% in test [1] (Table 4, 500 μg/mL). The figures for the inhibition at 125 µg/mL at Yeast α-Glucosidase (setting [5]), on α-amylase (setting [8]) and at PTP1B (setting [11]) were 70.6%, 80.6% and 82.3%, respectively. Besides, the inhibition at 250 µg/mL is 73.4% on Yeast α-Glucosidase (setting [5]), 86.5% on α-amylase (setting [9]) and 87.2% at PTP1B (setting [12]). Also, the results for the inhibition at 500 µg/mL at Yeast α-Glucosidase (setting [5]), at α-amylase (setting [10]) and on PTP1B (setting [13]) were 78.35 ± 0.23%, 93.1 ± 1.04% and 90.83 ± 0.47%, respectively. Moreover, the IC50 is less than 72.6 µM against Yeast α-Glucosidase; less than 72.7 µM at Yeast α-Glucosidase (based on molecular weight); less than 72.6 µM on α-amylase; less than 72.7 µM at α-amylase (based on molecular weight); less than 72.6 µM at PTP1B; less than 72.7 µM against PTP1B (based on molecular weight).
In the case of `C[C@H]1[C@H](C)CC[C@]2(C(=O)O)CC[C@]3(C)C(=CC[C@@H]4[C@@]5(C)CC[C@H](O)C(C)(C)[C@@H]5CC[C@]43C)[C@H]12` [Ursolic acid, reference compound], on PTP1B (setting [11]), the inhibition at 125 µg/mL was 91.5%. In addition, at PTP1B (setting [12]), the inhibition at 250 µg/mL is 93.6%. Also, at PTP1B (setting [13]), the inhibition at 500 µg/mL amounted to 98.7 ± 1.32%.
